The source of these data is patent publication US20250353853A1, “FLAVIVIRUS INHIBITORS” (IRBM S.P.A., priority 2022, published 2025).

In assay [1] the test system is ZIKV replicon in Vero cells. The assay is described as follows: ZIKV Replication Inhibition Assay (replicon, NanoLuc). To be noted: Zika virus, Vero, 72 h, read-out: Zika Replicon EC50. Background: A replicon is a self-replicating genome or part of one, used to study replication in cells.
The target of assay [2] is West Nile Virus (WNV) NS2B-NS3 protease (West Nile virus (WNV), UniProt P06935). In words: WNV Protease Inhibition Assay. It counts as biochemical. The source says:
WNV Protease Inhibition Assay

Read-outs that look alike come from different tables or passages of the source.

West Nile Virus (WNV) NS2B-NS3 protease, sequence (P06935 1502-1679 limits assumed): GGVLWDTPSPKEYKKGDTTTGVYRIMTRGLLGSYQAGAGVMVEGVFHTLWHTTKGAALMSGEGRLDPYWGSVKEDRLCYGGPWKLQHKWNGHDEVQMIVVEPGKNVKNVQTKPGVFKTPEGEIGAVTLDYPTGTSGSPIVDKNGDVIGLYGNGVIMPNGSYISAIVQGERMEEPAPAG
West Nile Virus (WNV) NS2B-NS3 protease, sequence (P06935 1371-1501 partner limits assumed): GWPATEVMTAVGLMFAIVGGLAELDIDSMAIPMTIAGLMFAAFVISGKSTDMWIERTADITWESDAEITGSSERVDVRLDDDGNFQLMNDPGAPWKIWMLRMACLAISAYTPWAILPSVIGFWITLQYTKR

For the compound `Cc1ncccc1-c1ccc(C[n+]2cc([N-]C(=O)Nc3cccc(C(F)(F)F)c3)on2)nc1` [Example 138, (3-((2′-methyl-[3,3′-bipyridin]-6-yl)methyl)-1,2,3-oxadiazol-3-ium-5-yl)((3-(trifluoromethyl)phenyl)carbamoyl)amide], the EC50 – broadly, the concentration giving half of the maximal effect – in assay [1] is less than 100 nM. The IC50 (commonly the concentration at which inhibition is half-maximal) in assay [2] (2 nM protease, 10 μM pERTKR-AMC substrate, read-out: WNV Protease IC50) is less than 100 nM.

With `O=C([N-]c1c[n+](Cc2ccc(-c3cnccn3)cc2)no1)Nc1cccc(C(F)(F)F)c1` [Example 42, (3-(4-(pyrazin-2-yl)benzyl)-1,2,3-oxadiazol-3-ium-5-yl)((3-(trifluoromethyl)phenyl)carbamoyl)amide], the EC50 in assay [1] lay within 100 to 1000 nM. For the same compound, the half-inhibitory concentration (IC50) in assay [2] was in the range of 100 to 1000 nM.

`O=C([N-]c1c[n+](Cc2ccc(-c3cnoc3)cc2)no1)Nc1cccc(C(F)(F)F)c1` [Example 48, (3-(4-(isoxazol-4-yl)benzyl)-1,2,3-oxadiazol-3-ium-5-yl)((3-(trifluoromethyl)phenyl)carbamoyl)amide]: the concentration giving a half-maximal response (EC50) in assay [1] is 100 to 1000 nM. This compound also came in with a half-maximal inhibitory concentration (IC50) in assay [2] of 100 to 1000 nM.
